pKi: −log10 of the molar value.
Tests used:
[1] = test system: human ovarian carcinoma cells OV-MZ-6; test: Cytotoxicity determination (tetrazolium salt conversion, Promega); format: cell-based
Source text: To determine cell proliferation/cytotoxicity a commercially available test was used (Promega) which is based on the cellular conversion of a tetrazolium salt. The colored product resulting from this reaction can be quantified by means of an ELISA spectrometer (ICN flow). The synthetic inhibitor (open circles) had no effect on the growth of the human ovarian carcinoma cells OV-MZ-6 (FIG. 1) when compared with the solvent alone (closed circles). Thus, the inventive uPA inhibitor is not cytotoxic in pharmacologically effective concentrations up to 40 μM.

[2] = test system: BN-472 breast cancer tumor; test: Breast cancer model in rats (Example 7); format: in vivo; conditions: for average tumor weights at the end of the treatment, reduced to % of vehicle-treated control / mean weights of the axillary lymph nodes, reduced to % of control / number of lung foci, reduced to % of control: 1 mg/kg daily
Procedure: 10-25 mm^3 of BN-472 breast cancer tumor fragments from rats were transplanted into female brown Norwegian rats from 6 to 7 weeks old, subcutaneously and orthotopically under the subcutaneous fat of the mammary gland (Day 0). The treatment of the animals was started intraperitoneally 24 hours after tumor inoculation. Each group consisted of eight animals. The control group received only the injection solution (100 μl of a 10% ethanol/saline (0.9% NaCl) solution). A dose of 1 mg/kg body weight was intraperitoneally administered on a daily basis to the comparative group of the naphthyl derivative. (B) and to the therapy group of the inventive uPA inhibitor (A). The treatment was carried out over a period of 4 weeks.
The dimensions of the subcutaneous tumors and the weight of the animals were determined weekly. At the end of the treatment the animals were sacrificed and tumor weights, organ weights and the number of metastases in relevant tissues were determined.
The experiments described in sections A and B were repeated with the inhibitor administered in a different way. For this, the inhibitor was administered subcutaneously in the breast carcinoma model (n=9) and intraperitoneally in the pancreatic adenocarcinoma model (n=8) without changing the daily dose. The results of these repeat experiments corresponded to the results already discussed, both in tendency and extent.

[3] = Phase I clinical trial in healthy male volunteers (WX/50-001); format: in vivo, human; conditions: for tolerability: all dose levels
Procedure: In the first clinical trial with WX-UK1 (WX/50-001) the drug was investigated in a double-blind, randomized, three-way cross-over, placebo controlled phase I study focussing on pharmacokinetics, pharmacodynamics, safety, and tolerability of increasing doses of WX-UK1.
In this study six ascending i.v. Doses of WX-UK1 in the range of 0.01 to 0-3 mg/kg were administered and each dose was given to groups of six healthy male volunteers.

Trypsin = molecular target: T1, Trypsin (Bos taurus, UniProt P00760); test: In vitro inhibition of serine proteases: trypsin; format: biochemical
T1 construct: gene PRSS1
T1 sequence (P00760 24-246): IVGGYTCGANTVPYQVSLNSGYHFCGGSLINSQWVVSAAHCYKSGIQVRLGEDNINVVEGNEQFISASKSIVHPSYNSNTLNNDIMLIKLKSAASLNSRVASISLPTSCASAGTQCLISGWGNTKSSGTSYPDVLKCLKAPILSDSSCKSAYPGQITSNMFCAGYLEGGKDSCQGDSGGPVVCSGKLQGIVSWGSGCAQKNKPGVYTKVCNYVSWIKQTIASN
Procedure: (§1) Ki values were determined according to Dixon by linear regression using a computer program.

Glandular kallikrein = Glandular kallikrein (Homo sapiens, UniProt P06870); test: In vitro inhibition of serine proteases: glandular kallikrein; format: biochemical
Sequence of Glandular kallikrein (P06870 25-262): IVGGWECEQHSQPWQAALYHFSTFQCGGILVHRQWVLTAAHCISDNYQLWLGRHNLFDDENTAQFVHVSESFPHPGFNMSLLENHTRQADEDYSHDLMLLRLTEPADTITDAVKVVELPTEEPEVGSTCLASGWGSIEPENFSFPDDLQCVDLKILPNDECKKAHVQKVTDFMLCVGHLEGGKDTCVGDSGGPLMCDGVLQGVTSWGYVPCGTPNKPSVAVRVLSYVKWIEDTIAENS
Procedure: as §1

CCOC(=O)N1CCN(C(=O)[C@H](Cc2cccc(C(=N)N)c2)NS(=O)(=O)c2c(C(C)C)cc(C(C)C)cc2C(C)C)CC1.Cl [uPA inhibitor, Nα-2,4,6-Triisopropylphenylsulfonyl-(L)-3-amidinophenylalanine 4-ethoxycarbonylpiperazide hydrochloride]
effect on the growth of OV-MZ-6 cells ([1]; compared with the solvent alone (FIG. 1)): no effect
cytotoxicity ([1]; concentrations up to 40 μM): not cytotoxic
weights of lung, liver, kidney and spleen ([2]; 1 mg/kg i.p. daily, 4 weeks, compared to control animals): unchanged
weight of the primary tumor ([2]; 1 mg/kg i.p. daily, 4 weeks, p=0.003 vs naphthyl derivative (B) and control): significant reduction
weight of the axillary lymph nodes ([2]; 1 mg/kg i.p. daily, 4 weeks, p=0.005 vs naphthyl derivative (B) and control): significant reduction
toxicity (body weight increase, organ weights) ([2]; breast and pancreatic tumor models in rats, inhibitor-treated vs vehicle-treated groups): no indications of any considerable toxicity
average tumor weights at the end of the treatment, reduced to % of vehicle-treated control ([2]; i.p.): 23%
mean weights of the axillary lymph nodes, reduced to % of control ([2]; i.p.): 27%
number of lung foci, reduced to % of control ([2]; i.p.): 9%
number of metastatic lung foci ([2]; rat breast cancer model, vs vehicle-treated controls): substantially reduced
sizes of subcutaneous tumors ([2]; rat pancreatic and breast cancer models, vs vehicle-treated controls): reduced
average tumor weights at the end of the treatment, reduced to % of vehicle-treated control ([2]; s.c.): 37%
mean weights of the axillary lymph nodes, reduced to % of control ([2]; s.c.): 48%
number of lung foci, reduced to % of control ([2]; s.c.): 32%
changes in vital signs, ECG parameters, general safety laboratory parameters and adverse event profiles ([3]; attributable to the study drug): No changes
mean increases of coagulation parameters PT, aPTT and TT ([3]; doses of 0.05 mg/kg and higher, end of infusion, 0-5% with placebo): 6-13%
dose proportionality in PK studies ([3]; healthy volunteers): good dose proportionality
systemic and local safety profile ([3]; healthy volunteers): advantageous systemic and local safety profile
bleeding times ([3]; human, in vivo): unchanged
drug-induced hemolysis ([3]; human, in vivo): no indication
time for coagulation parameters to return to baseline ([3]; human, in vivo): ≤ 15 min
time of maximum plasma concentrations ([3]; i.v. infusion (FIG. 10)): at the end of the 30 min. infusion period
mean terminal half lives ([3]; i.v. infusion, healthy male volunteers): 10 to 12 h
tolerability ([3]; i.v. infusion, healthy volunteers, listed as WK-UK1, hydrochloride): well tolerated
tolerability ([3]; i.v. infusion, healthy volunteers, listed as WX-UK1, hydrochloride): very well tolerated
renal excretion of the parent compound ([3]; share of the dose): less then one percent
pKi (Trypsin): 7.43
pKi (Glandular kallikrein): < 3.00

From patent publication US7342018B2, “Urokinase inhibitors and uses thereof” (Wilex AG, priority 1998, dated 2008)
